# Test results: patent US6737383B1, “Herbicidal oxadiazolidines” (priority 1999, dated 2004)
# Tests used:
# bedstraw = assay: Test B pre/postemergence bedstraw; format: in vivo, Galium aparine
# Outline: (§1)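 Herbicidal effect was estimated by eye on a ten-point control scale after plants spent twelve to sixteen days in a greenhouse following soil or foliar treatment. Foliar sprays targeted plants at one to four leaves; all doses were formulated in a non-phytotoxic solvent with surfactant.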
# blackgrass [1] = assay: Test B pre/postemergence blackgrass; format: in vivo, Alopecurus myosuroides
# Outline: as §1
# soybean = assay: Test B pre/postemergence soybean; format: in vivo, Glycine max
# Outline: as §1
# velvetleaf = assay: Test B pre/postemergence velvetleaf; format: in vivo, Abutilon theophrasti
# Outline: as §1
# Alexandergrass = assay: Test D Alexandergrass; format: in vivo, Brachiaria plantaginea; conditions: Preemergence, 0 to 100 scale
# Outline: (§2)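 Seeds were sown in greenhouse pots, one species per pot or compartment. Compounds were in a non-phytotoxic solvent mixture with surfactant; preemergence applications went on the sandy loam surface within one day of planting. Injury was rated visually after 14 to 21 days, 0 (none) to 100 (complete control).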
# Johnson grass = assay: Test D Johnson grass; format: in vivo, Sorghum halepense; conditions: Preemergence, 0 to 100 scale
# Outline: as §2
# purple nutsedge = assay: Test D purple nutsedge; format: in vivo, Cyperus rotundus; conditions: Preemergence, 0 to 100 scale
# Outline: as §2
# winter wheat [2] = assay: Test E winter wheat; format: in vivo, Triticum aestivum; conditions: Postemergence; for Plant response rating, Wheat (winter): 0 to 100 scale
# Outline: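 Plants were grown under normal greenhouse practice; for postemergence, in sandy loam soil mixed 60:40 with potting mix, treated at the 1- to 4-leaf stage. The compound was in a non-phytotoxic solvent carrying a surfactant. After roughly 21 to 28 days plants were scored visually against untreated plants.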
# blackgrass [3] = assay: Test E blackgrass; format: in vivo, Alopecurus myosuroides; conditions: Preemergence
# green foxtail = assay: Test E green foxtail; format: in vivo, Setaria viridis; conditions: Preemergence
# Italian ryegrass = assay: Test E Italian ryegrass; format: in vivo, Lolium multiflorum; conditions: Preemergence
# winter wheat [4] = assay: Test E winter wheat; format: in vivo, Triticum aestivum; conditions: Preemergence
# wild oat = assay: Test E wild oat; format: in vivo, Avena fatua; conditions: Preemergence
# winter barley = assay: Test E winter barley; format: in vivo, Hordeum vulgare; conditions: Preemergence
# [5] = Preemergence, Rate 62 g/ha, scale of 0 to 10 where 0 is no effect and 10 is complete control
# [6] = Preemergence, Rate 250 g/ha, scale of 0 to 10 where 0 is no effect and 10 is complete control
# [7] = Preemergence, Rate 500 g/ha, scale of 0 to 10 where 0 is no effect and 10 is complete control
# [8] = Rate 62 g/ha, Postemergence, scale of 0 to 10 where 0 is no effect and 10 is complete control
# [9] = Rate 125 g/ha, Postemergence, scale 0 to 10
# [10] = Rate 125 g/ha, Preemergence, scale of 0 to 10 where 0 is no effect and 10 is complete control
# [11] = Rate 500 g/ha, Postemergence, scale 0 to 10, 0 no effect, 10 complete control
# [12] = Rate 16 g/ha, 0 no injury, 100 complete control
# [13] = Rate 32 g/ha, 0 no injury, 100 complete control
# [14] = Rate 64 g/ha, 0 no injury, 100 complete control
# [15] = Rate 125 g/ha, 0 no injury, 100 complete control
# [16] = Rate 31 g/ha, 0 to 100 scale, 0 no effect, 100 complete control
# [17] = Rate 62 g/ha, 0 to 100 scale, 0 no effect, 100 complete control
# [18] = Rate 125 g/ha, 0 to 100 scale (0 no effect, 100 complete control)
# [19] = Rate 500 g/ha, 0 to 100 scale where 0 is no effect and 100 is complete control
smiles,measurement,setting,value
CC(C)N(C(=O)n1oc(=O)n(C2CC2)c1=O)c1ccc(F)cc1 [Compound 242],Bedstraw plant response rating,bedstraw; [5],0
same,Bedstraw plant response rating,bedstraw; [6],9
same,"Plant response rating, Bedstraw",bedstraw; [7],10
same,Bedstraw plant response rating,bedstraw; [8],2
same,Bedstraw plant response rating,bedstraw; [9],5
same,Bedstraw plant response rating,bedstraw; [10],7
same,"Plant response rating (0 to 10; 0 is no effect, 10 is complete control), Bedstraw","bedstraw; Rate 250 g/ha, Postemergence",7
same,Bedstraw plant response rating,bedstraw; [11],8
same,Blackgrass plant response rating,blackgrass [1]; [5],9
same,Blackgrass plant response rating,blackgrass [1]; [6],10
same,"Plant response rating, Blackgrass",blackgrass [1]; [7],10
same,Blackgrass plant response rating,blackgrass [1]; [8],8
same,Blackgrass plant response rating,blackgrass [1]; [9],9
same,Blackgrass plant response rating,blackgrass [1]; [10],10
same,"Plant response rating (0 to 10; 0 is no effect, 10 is complete control), Blackgrass","blackgrass [1]; Rate 250 g/ha, Postemergence",9
same,Blackgrass plant response rating,blackgrass [1]; [11],9
same,Soybean plant response rating,soybean; [5],0
same,Soybean plant response rating,soybean; [6],6
same,"Plant response rating, Soybean",soybean; [7],7
same,Soybean plant response rating,soybean; [8],4
same,Soybean plant response rating,soybean; [10],2
same,Soybean plant response rating,soybean; [11],6
same,Velvetleaf plant response rating,velvetleaf; [5],6
same,Velvetleaf plant response rating,velvetleaf; [6],8
same,"Plant response rating, Velvetleaf",velvetleaf; [7],10
same,Velvetleaf plant response rating,velvetleaf; [8],3
same,Velvetleaf plant response rating,velvetleaf; [10],8
same,Velvetleaf plant response rating,velvetleaf; [11],7
same,"Plant response rating, Alexandergrass",Alexandergrass; [12],65
same,"Plant response rating, Alexandergrass",Alexandergrass; [13],85
same,"Plant response rating, Alexandergrass",Alexandergrass; [14],100
same,"Plant response rating, Alexandergrass",Alexandergrass; [15],98
same,"Plant response rating, Alexandergrass",Alexandergrass; Rate 250 g/ha,100
same,"Plant response rating, Alexandergrass",Alexandergrass; Rate 500 g/ha,100
same,"Plant response rating, Johnsongrass",Johnson grass; [12],10
same,"Plant response rating, Johnsongrass",Johnson grass; [13],40
same,"Plant response rating, Johnsongrass",Johnson grass; [14],40
same,"Plant response rating, Johnsongrass",Johnson grass; [15],85
same,"Plant response rating, Johnsongrass",Johnson grass; Rate 250 g/ha,98
same,"Plant response rating, Johnsongrass",Johnson grass; Rate 500 g/ha,100
same,"Plant response rating, Purple nutsedge",purple nutsedge; [12],0
same,"Plant response rating, Purple nutsedge",purple nutsedge; [13],0
same,Purple nutsedge plant response rating,purple nutsedge; [14],0
same,Purple nutsedge plant response rating,purple nutsedge; [15],40
same,"Plant response rating, Purple nutsedge",purple nutsedge; Rate 250 g/ha,60
same,"Plant response rating, Purple nutsedge",purple nutsedge; Rate 500 g/ha,60
same,"Plant response rating, Wheat (winter)","winter wheat [2]; Rate 31 g/ha, 0 no effect, 100 complete control",55
same,"Plant response rating, Wheat (winter)",winter wheat [2]; Rate 62 g/ha,65
same,"Plant response rating, Wheat (winter)","winter wheat [2]; Rate 125 g/ha, 0 is no effect, 100 is complete control",10
same,Wheat (winter) plant response rating,"winter wheat [2]; Rate 250 g/ha, 0 to 100 scale where 0 is no effect and 100 is complete control",10
same,"Plant response rating, Wheat (winter)","winter wheat [2]; Rate 500 g/ha, 0 is no effect, 100 is complete control",90
same,"Plant response rating, Blackgrass",blackgrass [3]; [16],55
same,"Plant response rating, Blackgrass",blackgrass [3]; [17],70
same,"Plant response rating, Blackgrass",blackgrass [3]; [18],95
same,Blackgrass plant response rating (0 to 100 scale),blackgrass [3]; Rate 250 g/ha,100
same,"Plant response rating, Blackgrass",blackgrass [3]; [19],98
same,"Plant response rating, Green foxtail",green foxtail; [16],50
same,"Plant response rating, Green foxtail",green foxtail; [18],70
same,Green foxtail plant response rating (0 to 100 scale),green foxtail; Rate 250 g/ha,98
same,"Plant response rating, Green foxtail",green foxtail; [19],100
same,"Plant response rating, I. Ryegrass",Italian ryegrass; [16],65
same,"Plant response rating, I. Ryegrass",Italian ryegrass; [17],70
same,"Plant response rating, I. Ryegrass",Italian ryegrass; [18],95
same,I. Ryegrass plant response rating (0 to 100 scale),Italian ryegrass; Rate 250 g/ha,98
same,"Plant response rating, I. Ryegrass",Italian ryegrass; [19],100
same,"Plant response rating, Wheat (winter)",winter wheat [4]; [16],30
same,"Plant response rating, Wheat (winter)",winter wheat [4]; [17],40
same,"Plant response rating, Wheat (winter)",winter wheat [4]; [18],65
same,Wheat (winter) plant response rating (0 to 100 scale),winter wheat [4]; Rate 250 g/ha,55
same,"Plant response rating, Wheat (winter)",winter wheat [4]; [19],95
same,"Plant response rating, Wild oat",wild oat; [16],50
same,"Plant response rating, Wild oat",wild oat; [17],60
same,"Plant response rating, Wild oat",wild oat; [18],60
same,Wild oat plant response rating (0 to 100 scale),wild oat; Rate 250 g/ha,98
same,"Plant response rating, Wild oat",wild oat; [19],100
same,"Plant response rating, Barley (winter)",winter barley; [16],30
same,"Plant response rating, Barley (winter)",winter barley; [17],30
same,"Plant response rating, Barley (winter)",winter barley; [18],40
same,Barley (winter) plant response rating (0 to 100 scale),winter barley; Rate 250 g/ha,60
same,"Plant response rating, Barley (winter)",winter barley; [19],85
